Assay [1] deals with T1, PI3Kβ (Homo sapiens, UniProt P42338).
T1 construct: endogenous in cells; host or cells: PC-3 (ATCC #CRL-1435)
Nature of the assay: ELISA assay for PI3Kβ: in-cell ELISA, phosphorylation of AKT (Ser473) in PC-3 cells. The note with it: for IC50: cellular, pAKT (Ser473), PC-3 cells, LPA stimulation, read-out: IC50 p110β; for α/β ratio: ratio of cellular IC50 values, Table 2. It counts as cell-based. (ELISA stands for enzyme-linked immunosorbent assay.)

Assay [2] has as its target T2, PI3Kγ (Mus musculus, UniProt Q9JHG7).
T2 construct: endogenous in cells; host or cells: RAW 264.7 (ATCC #TIB-71)
Nature of the assay: ELISA assay for PI3Kγ: in-cell ELISA, phosphorylation of AKT (Ser473) in RAW 264.7 cells. It counts as cell-based. The note with it: cellular, pAKT (Ser473), C5a stimulation, read-out: IC50 p110γ. The method, boiled down:
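Serum-starved mouse RAW 264.7 macrophages were pretreated with compound (10 concentrations) for 2 h at 37 °C, then stimulated 3 min with human C5a. After fixation, in-cell ELISA measured pAKT Ser473 by infrared imaging, with total S6 as reference. IC50 obtained by curve fitting.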

IC50 and α/β ratio data for two compounds are collected here from patent US12059422B2 (MEI Pharma, Inc., priority 2011, dated 2024).

T1 sequence (P42338 whole entry): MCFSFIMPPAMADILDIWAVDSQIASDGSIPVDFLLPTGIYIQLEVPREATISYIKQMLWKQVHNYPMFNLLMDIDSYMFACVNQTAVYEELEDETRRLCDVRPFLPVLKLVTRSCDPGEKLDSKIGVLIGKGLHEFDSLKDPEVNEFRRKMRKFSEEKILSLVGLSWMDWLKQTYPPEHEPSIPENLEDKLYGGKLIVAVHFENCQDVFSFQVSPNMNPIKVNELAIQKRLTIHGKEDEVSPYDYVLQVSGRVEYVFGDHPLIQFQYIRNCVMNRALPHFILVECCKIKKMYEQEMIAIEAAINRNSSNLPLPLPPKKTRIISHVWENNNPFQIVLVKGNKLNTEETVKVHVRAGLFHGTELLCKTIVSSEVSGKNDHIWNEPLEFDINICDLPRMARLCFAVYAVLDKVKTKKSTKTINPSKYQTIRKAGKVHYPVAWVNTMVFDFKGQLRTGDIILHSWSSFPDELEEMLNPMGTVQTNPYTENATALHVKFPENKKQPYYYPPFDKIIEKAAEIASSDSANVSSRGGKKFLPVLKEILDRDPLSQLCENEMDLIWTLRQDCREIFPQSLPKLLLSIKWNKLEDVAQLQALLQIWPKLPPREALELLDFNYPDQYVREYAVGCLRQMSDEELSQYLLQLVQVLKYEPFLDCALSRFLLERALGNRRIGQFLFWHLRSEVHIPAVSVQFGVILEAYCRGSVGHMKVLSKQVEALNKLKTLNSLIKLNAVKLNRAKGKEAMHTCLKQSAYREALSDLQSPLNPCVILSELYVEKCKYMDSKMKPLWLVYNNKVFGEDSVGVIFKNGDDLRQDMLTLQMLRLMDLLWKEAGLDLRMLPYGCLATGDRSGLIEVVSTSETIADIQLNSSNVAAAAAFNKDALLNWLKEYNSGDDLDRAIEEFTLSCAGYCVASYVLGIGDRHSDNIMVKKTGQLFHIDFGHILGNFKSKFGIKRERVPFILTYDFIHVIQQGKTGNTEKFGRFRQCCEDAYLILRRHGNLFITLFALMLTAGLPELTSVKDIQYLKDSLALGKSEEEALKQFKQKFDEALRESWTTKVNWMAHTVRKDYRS
T1 sequence (P27986 whole entry partner): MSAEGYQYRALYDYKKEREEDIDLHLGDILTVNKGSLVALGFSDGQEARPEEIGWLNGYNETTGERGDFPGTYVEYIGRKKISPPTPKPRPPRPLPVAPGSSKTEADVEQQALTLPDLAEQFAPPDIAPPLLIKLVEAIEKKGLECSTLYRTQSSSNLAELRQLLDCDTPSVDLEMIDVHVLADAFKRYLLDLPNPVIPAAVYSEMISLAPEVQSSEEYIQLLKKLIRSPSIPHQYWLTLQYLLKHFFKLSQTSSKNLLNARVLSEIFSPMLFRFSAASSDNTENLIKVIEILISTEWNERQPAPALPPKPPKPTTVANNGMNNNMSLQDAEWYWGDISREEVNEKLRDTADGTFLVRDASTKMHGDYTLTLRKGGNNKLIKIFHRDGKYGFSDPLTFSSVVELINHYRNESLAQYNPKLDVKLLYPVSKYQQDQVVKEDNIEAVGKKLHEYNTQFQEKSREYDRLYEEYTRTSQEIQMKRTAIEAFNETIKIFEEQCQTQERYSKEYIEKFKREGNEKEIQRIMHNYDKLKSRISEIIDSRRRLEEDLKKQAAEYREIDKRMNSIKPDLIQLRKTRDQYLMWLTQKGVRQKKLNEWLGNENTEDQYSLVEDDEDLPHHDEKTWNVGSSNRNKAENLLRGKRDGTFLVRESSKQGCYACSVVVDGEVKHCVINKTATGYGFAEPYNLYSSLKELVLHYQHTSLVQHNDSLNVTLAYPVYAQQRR
T2 sequence (Q9JHG7 whole entry): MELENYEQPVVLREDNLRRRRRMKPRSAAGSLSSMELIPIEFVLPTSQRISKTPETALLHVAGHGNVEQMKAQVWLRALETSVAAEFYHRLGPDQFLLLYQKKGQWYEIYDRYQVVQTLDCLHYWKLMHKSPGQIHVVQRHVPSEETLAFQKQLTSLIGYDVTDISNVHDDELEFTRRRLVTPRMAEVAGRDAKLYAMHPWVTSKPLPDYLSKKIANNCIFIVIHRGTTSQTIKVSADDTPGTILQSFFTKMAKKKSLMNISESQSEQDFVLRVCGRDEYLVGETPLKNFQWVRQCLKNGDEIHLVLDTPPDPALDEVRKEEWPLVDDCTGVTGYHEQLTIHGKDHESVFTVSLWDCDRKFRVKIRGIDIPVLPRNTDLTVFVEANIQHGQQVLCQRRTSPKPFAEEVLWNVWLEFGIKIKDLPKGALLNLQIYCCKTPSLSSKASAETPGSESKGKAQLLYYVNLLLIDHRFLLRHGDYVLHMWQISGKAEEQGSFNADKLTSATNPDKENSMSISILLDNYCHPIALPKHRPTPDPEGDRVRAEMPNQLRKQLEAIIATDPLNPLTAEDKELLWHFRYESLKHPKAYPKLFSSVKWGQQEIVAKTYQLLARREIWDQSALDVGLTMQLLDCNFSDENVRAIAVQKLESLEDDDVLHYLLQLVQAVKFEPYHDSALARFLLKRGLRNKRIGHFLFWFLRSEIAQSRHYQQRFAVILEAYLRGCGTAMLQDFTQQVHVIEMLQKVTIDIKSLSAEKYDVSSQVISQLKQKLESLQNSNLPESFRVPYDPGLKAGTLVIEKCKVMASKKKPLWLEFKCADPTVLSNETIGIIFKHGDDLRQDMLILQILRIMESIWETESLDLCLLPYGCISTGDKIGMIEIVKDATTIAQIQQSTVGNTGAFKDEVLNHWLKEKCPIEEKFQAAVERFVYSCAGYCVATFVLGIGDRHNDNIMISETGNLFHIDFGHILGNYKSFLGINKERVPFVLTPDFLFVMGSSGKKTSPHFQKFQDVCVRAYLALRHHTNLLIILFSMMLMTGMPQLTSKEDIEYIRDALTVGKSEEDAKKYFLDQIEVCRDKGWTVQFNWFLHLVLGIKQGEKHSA

For the compound `CN1CCC(c2ccccc2CC(C)(C)Nc2nc(N3CCOCC3)nc(-n3c(C(F)F)nc4ccccc43)n2)C1` (stereo not drawn) [Compound A75, 4-(2-(difluoromethyl)-1H-benzo[d]imidazol-1-yl)-N-(2-methyl-1-(2-(1-methylpyrrolidin-3-yl)phenyl)propan-2-yl)-6-morpholino-1,3,5-triazin-2-amine], the IC50 (usually the midpoint of a concentration-inhibition curve) in assay [1] was at most 100 nM; in assay [2], 100 to 200 nM. Besides, in assay [1], the α/β ratio result is given as “A’”.

With `CN(C)CCCc1ccccc1CC(C)(C)Nc1nc(N2CCOCC2)nc(-n2c(C(F)F)nc3ccccc32)n1` [Compound A76, 4-(2-(difluoromethyl)-1H-benzo[d]imidazol-1-yl)-N-(1-(2-(3-(dimethylamino)propyl)phenyl)-2-methylpropan-2-yl)-6-morpholino-1,3,5-triazin-2-amine], in assay [1], the IC50 is at most 100 nM and the α/β ratio result was “A’”. Moreover, in assay [2], the IC50 was above 500 nM.
